From US20130053337A1, “GUANIDINYLATED AMINOGLYCOSIDE-LIPID CONJUGATES” (UNIVERSITY OF MANITOBA, priority 2010, published 2013)
≈ marks a conversion by molar mass, not a printed value.

Assays:
S. aureus ATCC 29213 = assay: MIC, broth macrodilution (CLSI); type: cell-based, Staphylococcus aureus; details: S. aureus ATCC29213
Protocol: (§1) All experiments were performed in duplicate.
(§2) Bacterial isolates studied included both reference strains obtained from the American Type Culture Collection (ATCC) as well as clinical strains obtained from the CAN-ICU study which was a national surveillance study assessing the prevalence of antimicrobial resistant pathogens in Canadian intensive care units (Zhanel et al., 2008). Isolates were kept frozen in skim milk at −80° C. until minimum inhibitory concentration (MIC) testing was carried out. Following two subcultures from frozen stock, the in vitro activities of peptides were determined by macrobroth dilution in accordance with the Clinical and Laboratory Standards Institute (CLSI) 2006 guidelines (Zhanel et al., 2008). Stock solutions of peptides were prepared and dilutions made as described by CLSI. Test tubes contained doubling antimicrobial dilutions of cation adjusted Mueller-Hinton broth and inoculated to achieve a final concentration of approximately 5×10^5 cfu/ml then incubated in ambient air for 24 hours prior to reading. Colony counts were performed periodically to confirm inocula. Quality control was regularly performed using ATCC QC organisms.

MRSA ATCC 33592 = assay: MIC, broth macrodilution (CLSI); type: cell-based, methicillin-resistant Staphylococcus aureus; details: MRSA ATCC33592
Protocol: as §1, §2

[1] = tested on: S. epidermidis ATCC 14990; assay: MIC, broth macrodilution (CLSI); type: cell-based, Staphylococcus epidermidis; details: S. epidermidis ATCC14990
Protocol: as §1, §2

MRSE CAN-ICU 61589 = assay: MIC, broth macrodilution (CLSI); type: cell-based, methicillin-resistant Staphylococcus epidermidis
Protocol: as §1, §2

S. pneumoniae ATCC 49619 = assay: MIC, broth macrodilution (CLSI), broth with 5% laked horse blood; type: cell-based, Streptococcus pneumoniae; details: S. pneumoniae ATCC49619
Protocol: as §1, §2

[2] = tested on: E. coli (gentamicin-resistant) CAN-ICU 61714; assay: MIC, broth macrodilution (CLSI); type: cell-based; details: E. coli CAN-ICU 61714
Protocol: as §1, §2

E. coli ATCC 25922 = assay: MIC, broth macrodilution (CLSI); type: cell-based; details: E. coli ATCC25922
Protocol: as §1, §2

[3] = tested on: P. aeruginosa (gentamicin-resistant) CAN-ICU 62308; assay: MIC, broth macrodilution (CLSI); type: cell-based; details: P. aeruginosa CAN-ICU 62308
Protocol: as §1, §2

P. aeruginosa ATCC 27853 = assay: MIC, broth macrodilution (CLSI); type: cell-based; details: P. aeruginosa ATCC27853
Protocol: as §1, §2

[4] = tested on: sheep red blood cell (erythrocytes); assay: Hemolytic assay (in vitro toxicity); details: 100 mg/L; sheep erythrocytes; percent hemolysis
Protocol: Antibacterial activity against Gram-positive and Gram-negative microorganisms was tested via broth macrodilution tests using CLSI methodology (Zhanel et al., 2008). Stock solutions of cationic lipids in water were brought to a concentration of 512 mg/L. Organisms were subcultured and isolated on blood agar, suspended in 3 mL of Mueller-Hinton broth at the turbidity of a […], and diluted to approximately 10^5 cfu/mL before introduction into tubes containing serially diluted lipopeptide antibiotic in Mueller-Hinton broth. Activity testing against S. pneumoniae used broth supplemented with laked horse blood to give 5% horse blood in experimental tubes. Turbidity of lipopeptide solution in broth required creation of control tubes lacking organisms serving as turbidity controls. All tubes were incubated overnight for 16-20 h at 37° C. […] All experiments were performed in duplicate. In-vitro toxicity was determined using a sheep red blood cell hemolytic assay as previously described (Dathe et al., 1996).
In vitro toxicity was determined using a sheep red blood cell (erythrocytes) hemolytic assay (Dathe et al., 1996). […] Erythrocytes were washed and resuspended in Tris buffered saline. The cell suspension was combined with varying concentrations (low to very high) of test and control antimicrobials (e.g., aminoglycosides and APTCs). The samples were centrifuged and the absorbance of the supernatants measured at 540 nm. Tris buffered saline and Triton X were used as negative and positive controls, respectively. The toxicity was assessed by percent hemolysis.

[5] = tested on: methicillin-resistant S. aureus (MRSA); details: Bera et al., 2008; cited from earlier work
[6] = tested on: E. coli (amikacin MIC 32 mg/L) CAN-ICU 63074; details: E. coli CAN-ICU 63074; Zhanel et al., 2008; cited from earlier work
[7] = tested on: E. coli (amikacin MIC 32 mg/L) CAN-ICU 63074; assay: MIC, broth macrodilution (CLSI); type: cell-based; details: E. coli CAN-ICU 63074
Protocol: as §1, §2

[8] = tested on: E. coli (gentamicin-resistant) CAN-ICU 61714; details: E. coli CAN-ICU 61714; Zhanel et al., 2008; cited from earlier work
[9] = tested on: P. aeruginosa (gentamicin-resistant) CAN-ICU 62308; details: P. aeruginosa CAN-ICU 62308; Zhanel et al., 2008; cited from earlier work

| Compound | MIC (S. aureus ATCC 29213) [µg/mL] | MIC (MRSA ATCC 33592) [µg/mL] | MIC [1] [µg/mL] | MIC (MRSE CAN-ICU 61589) [µg/mL] | MIC (S. pneumoniae ATCC 49619) [µg/mL] | MIC [2] [µg/mL] | MIC (E. coli ATCC 25922) [µg/mL] | MIC [3] [µg/mL] | MIC (P. aeruginosa ATCC 27853) [µg/mL] | hemolytic activity at 100 mg/L [4] [%] | MIC [5] [µg/mL] | MIC (strain description) [6] [µg/mL] | MIC [7] [µg/mL] | MIC (strain description) [8] [µg/mL] | MIC (strain description) [9] [µg/mL] |
| --- | --- | --- | --- | --- | --- | --- | --- | --- | --- | --- | --- | --- | --- | --- | --- |
| NC[C@@H]1O[C@H](O[C@H]2[C@@H](O)[C@H](O[C@@H]3[C@@H](O)[C@H](N)C[C@H](N)[C@H]3O[C@H]3O[C@H](CN)[C@@H](O)[C@H](O)[C@H]3N)O[C@@H]2CO)[C@H](N)[C@@H](O)[C@@H]1O [Neomycin B, reference compound] | 1 (≈ 1.63 µM) | 256 (≈ 416 µM) | 0.25 (≈ 0.407 µM) | 0.5 (≈ 0.813 µM) | 32 (≈ 52.1 µM) | 8 (≈ 13 µM) | 4 (≈ 6.51 µM) | 512 (≈ 833 µM) | 512 (≈ 833 µM) | <0.3 | 256 (≈ 416 µM) | – | – | – | – |
| NCC[C@H](O)C(=O)N[C@@H]1C[C@H](N)[C@@H](O[C@H]2O[C@H](CN)[C@@H](O)[C@H](O)[C@H]2O)[C@H](O)[C@H]1O[C@H]1O[C@H](CO)[C@@H](O)[C@H](N)[C@H]1O [amikacin] | – | – | – | – | – | – | – | – | – | – | – | 32 (≈ 54.6 µM) | – | – | – |
| Gentamicin [reference compound] | 1 | 2 | 0.25 | 32 | 4 | 128 | 1 | 128 | 8 | – | – | – | 8 | > 32 | > 32 |
